Assay results from patent US4419358A, “Isethionic acid salt of 9-cyclohexyl-2-propoxy-9H-purine-6-amine and compositions containing an effective bronchodilating concentration of it” (Mead Johnson & Company, priority 1981, dated 1983).
Like-named read-outs stand apart in the source and are kept apart here.

Key:
Format in all cases: physicochemical
[1] = Water solubility of salts of MJ 13156 (Table 1, Method A or B); conditions: for Solubility: room temperature (about 25° C.)
Description: More conventional pharmaceutically acceptable acid addition salts of MJ 13156 are not well suited for the present use due to a limited solubility and, in some cases, lack of stability.
^1 Solubility data obtained using one of two methods:
Solubilities of isolated salts determined in standard manner by adding
H2 O to weighed salt samples and directly obtaining solubility data.
Solubilities of salts prepared in situ determined by adding a
moleequivalent of each acid to a 140 mg sample of MJ 13156 and then
diluting with H2 O in increments to 2.5 mg/mL. A second
moleequivalent of acid was added to each sample and allowed to stand
overnight. The precipitates were collected, dried, and weighed to obtain

[2] = Dissociation of salts/solvates in water
Description: (§1) Preparation of the isethionate salt of MJ 13156 is carried out by treating an equivalent of base in ethyl acetate with 2 equivalents of isethionic acid in ethanol-ethyl acetate solution. Chilling the mixture yields the salt which is collected by filtration. The salt can similarly be prepared by using more concentration solutions of both the acid and the base in ethanol.

[3] = Basicity (ability of MJ 13156 to form salts with weak acids); conditions: gluconic, lactobionic, acetic, and levulinic acids
Description: as §1

[4] = Method A: H2O added to weighed samples of isolated salts
[5] = listed as methanesulfonate salt
[6] = Method B: salts prepared in situ from 140 mg MJ 13156, second moleequivalent of acid added, overnight

Solubility [1, 4] | Solubility [1, 6] | SMILES | also measured
8000 µg/mL | – | CCCOc1nc(N)c2ncn(C3CCCCC3)c2n1 [methanesulfonic] | water solubility (in words) [1, 5]: reasonable water solubility; dissociation in water (in words) [2, 5]: dissociates moderately in water
100000 µg/mL | – | CCCOc1nc(N)c2ncn(C3CCCCC3)c2n1 [isethionic, 9-Cyclohexyl-2-propoxy-9H-purine-6-amine 2-Hydroxyethanesulfonate] | water solubility (in words) ([1]; listed as isethionate salt): clearly the most soluble of all those prepared
– | 800 µg/mL | CCCOc1nc(N)c2ncn(C3CCCCC3)c2n1 [sulfuric] | –
– | 1300 µg/mL | CCCOc1nc(N)c2ncn(C3CCCCC3)c2n1 [phosphoric] | –

The remaining lines, values behind:

SMILES | Solubility [1, 4] | Solubility [1, 6] | also measured
CCCOc1nc(N)c2ncn(C3CCCCC3)c2n1 [nitric] | – | 2400 µg/mL | –
CCCOc1nc(N)c2ncn(C3CCCCC3)c2n1 [MJ 13156, 9-cyclohexyl-2-propoxy-9H-purine-6-amine] | – | – | base strength (in words) [3]: too weak a base to form a salt with these acids
CCCOc1nc(N)c2ncn(C3CCCCC3)c2n1 [acetic acid solvate] | – | – | dissociation in water (in words) [2]: dissociated in water to give MJ 13156 base
CCCOc1nc(N)c2ncn(C3CCCCC3)c2n1 [hydrobromic] | – | 1600 µg/mL | –
CCCOc1nc(N)c2ncn(C3CCCCC3)c2n1 [hydrochloric] | 1400 µg/mL | – | –
CC(=O)CCC(=O)O [levulinic acid] | – | – | dissociation in water (in words) [2]: dissociated in water to give MJ 13156 base
